Test results reported in ChEMBL document CHEMBL1629607, “Nalidixic acid disk for laboratory detection of ciprofloxacin resistance in Neisseria meningitidis” (2009).
In brackets after ≈: the same amount, converted by molar mass.

What was measured:
Assay type in all cases: functional
[1] = test system: Neisseria meningitidis; assay: Antimicrobial activity against fluoroquinolone-susceptible Neisseria meningitidis by disk diffusion method; conditions: for MIC: Neisseria meningitidis
[2] = test system: Neisseria meningitidis; assay: Antimicrobial activity against fluoroquinolone-intermediate Neisseria meningitidis by disk diffusion method
[3] = test system: Neisseria meningitidis; assay: Antimicrobial activity against fluoroquinolone-resistant Neisseria meningitidis expressing gyrA mutant by disk diffusion method
[4] = test system: Neisseria meningitidis; assay: Antimicrobial activity against fluoroquinolone-resistant Neisseria meningitidis expressing gyrA mutant at 30 ug by disk diffusion method; conditions: read-out: IZ
[5] = test system: Neisseria meningitidis; assay: Antimicrobial activity against fluoroquinolone-susceptible Neisseria meningitidis at 30 ug by disk diffusion method; conditions: read-out: IZ

Compound	inhibition zone (IZ) [1]	MIC [1]	inhibition zone (IZ) [2]	MIC ([2]; Neisseria meningitidis)	inhibition zone (IZ) [3]	MIC ([3]; Neisseria meningitidis)	zone of inhibition at 30 µg/disc [4]	zone of inhibition at 30 µg/disc [5]
O=C(O)c1cn(C2CC2)c2cc(N3CCNCC3)c(F)cc2c1=O [CIPROFLOXACIN]	34 mm	≤ 0.03 µg/mL	35 mm	0.06 µg/mL (≈ 0.181 µM)	29 mm	≥ 0.12 µg/mL		
CCn1cc(C(=O)O)c(=O)c2ccc(C)nc21 [NALIDIXIC ACID]		0.25 µg/mL (≈ 1.08 µM)					< 15 mm	28 mm
